Values of other authors as cited in patent US4665086A, “Method for minimizing disturbances in circadian rhythms of bodily performance and function” (priority 1983, dated 1987).

How the values were obtained:
[1] = tested on: endogenous melatonin secretion; conditions: beta blocker; cited from earlier work
melatonin synthesis = conditions: rats, exogenous administration; cited from earlier work
laboratory animals = conditions: chronic administration, cited from earlier work; for effect on rhythm (splitting): monoamine oxidase inhibitors

Row | Compound | effect on rhythm (splitting) (laboratory animals) | effect on unentrained, free-running period (laboratory animals) | further results
1 | CC(C)NC[C@H](O)COc1cccc2ccccc12 (racemic) [PROPANOLOL] |  |  | effect on endogenous melatonin secretion [1]: can inhibit endogenous melatonin secretion
2 | N[C@@H](Cc1ccc(O)c(O)c1)C(=O)O [L-dopa] |  |  | effect on melatonin synthesis (melatonin synthesis): stimulates melatonin synthesis
3 | C#CCN(C)CCCOc1ccc(Cl)cc1Cl [clorgyline] | split the rhythm | lengthens the unentrained, free-running period | 
4 | [2H]O[2H] [heavy water (D2 O)] |  | lengthens the unentrained, free-running period | 
5 | CN(C)CCCN1c2ccccc2CCc2ccccc21 [imipramine] | split the rhythm | lengthens the unentrained, free-running period | 
6 | [Li] [lithium] |  | lengthens the unentrained, free-running period | 
